This passage reports Kd results from ChEMBL document CHEMBL1128410 (J Med Chem, 1995).

Each structure is given as a SMILES string.

The assay has as its target Carbonic anhydrase 2 (Homo sapiens, UniProt P00918).
Description: Compound was tested for the binding affinity towards Carbonic anhydrase II by competitive fluorescence assay with dansylamide
One may read the Kd as the constant that tells how readily two partners part at equilibrium. In the case of `CC(C)CC(N)C(=O)[C@@H](N)C(=O)NCCOCCOCCNC(=O)c1ccc(S(N)(=O)=O)cc1` (stereo not given in full), the Kd stood at 16 nM.
`NC(CO)C(=O)[C@@H](N)C(=O)NCCOCCOCCNC(=O)c1ccc(S(N)(=O)=O)cc1` (stereo not given in full) had a dissociation constant (Kd) of 41 nM.
In turn, `NCC(=O)[C@@H](N)C(=O)NCCOCCOCCNC(=O)c1ccc(S(N)(=O)=O)cc1` showed a Kd of 19 nM.
`NC(CCC(=O)O)C(=O)[C@@H](N)C(=O)NCCOCCOCCNC(=O)c1ccc(S(N)(=O)=O)cc1` (stereo not given in full) gave a dissociation constant Kd of 100 nM.
The result for `NCCCCC(N)C(=O)[C@@H](N)C(=O)NCCOCCOCCNC(=O)c1ccc(S(N)(=O)=O)cc1` (stereo not given in full) reads 50 nM.
